Experiments:
Assay type in all cases: in vivo
[1] = tested on: Amaranthus retoflexus (AMARE); assay: B5 Pre-Emergence Efficacy—Test 2; conditions: 250 g/ha, evaluated after 13 days
Procedure: (§1) B5 Pre-Emergence Efficacy—Test 2 Seeds of a variety of test species were sown in standard soil in pots: Solanum nigrum (SOLNI), Amaranthus retoflexus (AMARE), Setaria faberi (SETFA), Echinochloa crus-galli (ECHCG), Ipomoea hederacea (IPOHE), Lolium perenne (LOLPE). After cultivation for one day (pre-emergence) under controlled conditions in a glasshouse (at 24/16° C., day/night; 14 hours light; 65% humidity), the plants were sprayed with an aqueous spray solution derived from the formulation of the technical active ingredient in acetone/water (50:50) solution containing 0.5% Tween 20 (polyoxyethelyene sorbitan monolaurate, CAS RN 9005-64-5). Compounds are applied at 250 g/ha. The test plants were then grown in a glasshouse under controlled conditions (at 24/16° C., day/night; 14 hours light; 65% humidity) and watered twice daily. After 13 days, the test is evaluated for the percentage damage caused to the plant. The biological activities are assessed on a five point scale (5=80-100%; 4=60-79%; 3=40-59%; 2=20-39%; 1=0-19%). A blank value in the table is indicative that the compound was not tested on that species.

Solanum nigrum (SOLNI) [2] = assay: B5 Pre-Emergence Efficacy—Test 2; conditions: 250 g/ha, evaluated after 13 days
Procedure: as §1

[3] = tested on: Echinochloa crus-galli (ECHCG); assay: B5 Pre-Emergence Efficacy—Test 2; set-up: key: 5-point scale: 5=80-100%, 4=60-79%, 3=40-59%, 2=20-39%, 1=0-19% damage; conditions: 250 g/ha, evaluated after 13 days
Procedure: as §1

Setaria faberi (SETFA) [4] = assay: B5 Pre-Emergence Efficacy—Test 2; set-up: key: 5-point scale: 5=80-100%, 4=60-79%, 3=40-59%, 2=20-39%, 1=0-19% damage; conditions: 250 g/ha, evaluated after 13 days
Procedure: as §1

[5] = tested on: Ipomoea hederacea (IPOHE); assay: B5 Pre-Emergence Efficacy—Test 2; set-up: key: 5-point scale: 5=80-100%, 4=60-79%, 3=40-59%, 2=20-39%, 1=0-19% damage; conditions: 250 g/ha, evaluated after 13 days
Procedure: as §1

Lolium perenne (LOLPE) [6] = assay: B5 Pre-Emergence Efficacy—Test 2; set-up: key: 5-point scale: 5=80-100%, 4=60-79%, 3=40-59%, 2=20-39%, 1=0-19% damage; conditions: 250 g/ha, evaluated after 13 days
Procedure: as §1

[7] = tested on: Echinochloa crus-galli (ECHCG); assay: B2 Post-Emergence Efficacy—Test 2; conditions: post-emergence application, 250 g/ha, evaluated after 13 days (Test 2)
Procedure: (§2) B2 Post-Emergence Efficacy—Test 2 Seeds of a variety of test species are sown in standard soil in pots:—Solanum nigrum (SOLNI), Amaranthus retoflexus (AMARE), Setaria faberi (SETFA), Echinochloa crus-galli (ECHCG), Ipomoea hederacea (IPOHE), Lolium perenne (LOLPE). After 8 days cultivation (post-emergence) under controlled conditions in a glasshouse (at 24/16° C., day/night; 14 hours light; 65% humidity), the plants are sprayed with an aqueous spray solution derived from the formulation of the technical active ingredient in acetone/water (50:50) solution containing 0.5% Tween 20 (polyoxyethylene sorbitan monolaurate, CAS RN 9005-64-5). Compounds are applied at 250 g/ha. The test plants are then grown in a glasshouse under controlled conditions in a glasshouse (at 24/16° C., day/night; 14 hours light; 65% humidity) and watered twice daily. After 13 days, the test is evaluated for the percentage damage caused to the plant. The biological activities are assessed on a five point scale (5=80-100%; 4=60-79%; 3=40-59%; 2=20-39%; 1=0-19%). A blank value in the table is indicative that the compound was not tested on that species.

Setaria faberi (SETFA) [8] = assay: B2 Post-Emergence Efficacy—Test 2; conditions: post-emergence application, 250 g/ha, evaluated after 13 days (Test 2)
Procedure: as §2

[9] = tested on: Amaranthus retoflexus (AMARE); assay: B2 Post-Emergence Efficacy—Test 2; conditions: post-emergence application, 250 g/ha, evaluated after 13 days (Test 2)
Procedure: as §2

Solanum nigrum (SOLNI) [10] = assay: B2 Post-Emergence Efficacy—Test 2; conditions: post-emergence application, 250 g/ha, evaluated after 13 days (Test 2)
Procedure: as §2

[11] = tested on: Ipomoea hederacea (IPOHE); assay: B2 Post-Emergence Efficacy—Test 2; conditions: post-emergence application, 250 g/ha, evaluated after 13 days (Test 2)
Procedure: as §2

Lolium perenne (LOLPE) [12] = assay: B2 Post-Emergence Efficacy—Test 2; conditions: post-emergence application, 250 g/ha, evaluated after 13 days (Test 2)
Procedure: as §2

SMILES	Control of weed species after pre-emergence application, AMARE (percentage damage, five point scale) [1]	Control of weed species after pre-emergence application, SOLNI (percentage damage, five point scale) (Solanum nigrum (SOLNI) [2])	Control of weed species after pre-emergence application, ECHCG (percentage damage, five point scale) [3]	Control of weed species after pre-emergence application, SETFA (percentage damage, five point scale) (Setaria faberi (SETFA) [4])	Control of weed species after pre-emergence application, IPOHE (percentage damage, five point scale) [5]	Control of weed species after pre-emergence application, LOLPE (percentage damage, five point scale) (Lolium perenne (LOLPE) [6])	percentage damage caused to the plant, five point scale, ECHCG [7]	percentage damage caused to the plant, five point scale, SETFA (Setaria faberi (SETFA) [8])	percentage damage caused to the plant, five point scale, AMARE [9]	percentage damage caused to the plant, five point scale, SOLNI (Solanum nigrum (SOLNI) [10])	percentage damage caused to the plant, five point scale, IPOHE [11]	percentage damage caused to the plant, five point scale, LOLPE (Lolium perenne (LOLPE) [12])
CC(=O)Nc1ccc(CCc2c(Cl)ccc(F)c2-c2c(O)c(C)nn(C)c2=O)cc1 [Compound A-1.024]	5 (5=80-100%)	5 (5=80-100%)	2 (2=20-39%)	5 (5=80-100%)	0	4 (4=60-79%)	4 (4=60-79%)	5 (5=80-100%)	5 (5=80-100%)	5 (5=80-100%)	5 (5=80-100%)	5 (5=80-100%)
Cc1nn(C)c(=O)c(-c2c(F)ccc(Cl)c2CCc2ccc(-c3ccccc3)cc2)c1O [Compound A-1.027, 4-[3-chloro-6-fluoro-2-[2-(4-phenylphenyl)ethyl]phenyl]-5-hydroxy-2,6-dimethyl-pyridazin-3-one]	5 (5=80-100%)	4 (4=60-79%)	1 (1=0-19%)	3 (3=40-59%)	4 (4=60-79%)	2 (2=20-39%)	5 (5=80-100%)	5 (5=80-100%)	5 (5=80-100%)	4 (4=60-79%)	4 (4=60-79%)	5 (5=80-100%)
Cc1nn(C)c(=O)c(-c2c(F)ccc(Cl)c2/C=C/c2ccccc2C#N)c1OC(=O)C(C)C [Compound A-4.029]	2 (2=20-39%)	4 (4=60-79%)	0	0	0	0	1 (1=0-19%)	0	4 (4=60-79%)	4 (4=60-79%)	4 (4=60-79%)	1 (1=0-19%)
